Measurements reported in patent publication US20210212984A1, “FORMULATION FOR PAIN MANAGEMENT” (Zyus Life Sciences Inc., priority 2019, published 2021).
“And” between values parts separate entries of the source, which are not always exact repeats. Identical values can stand only once.

Legend:
Type in all cases: in vivo, Sprague-Dawley rats
SNL operated SD rats [1] = assay: Data mining (contrastive PCA) of multivariate kinematic gait data: SNL model score and sedation score; settings: 50 mg/kg
Procedure: In this Example, data mining was performed to extend the multivariate kinematic data analysis and capture (a) Parameters indicative of analgesia vs. sedation phenotypes (analgesic or sedation ‘fingerprint’) (b) Quantitative measurement of parameters attributed to the temporal aspects of motion to evaluate temporal aspects of motion, such as positions, angles, velocities, and accelerations of body segments and joints during motion. Briefly, Contrastive Principal Component Analysis (cPCA) was utilized to identify different combinations of original variables which were linked to model effect, learning effect, and sedative effects. An orthogonalization procedure was used to make the obtained effects independent. cPC scores corresponding to identified cPCs were computed. In order to evaluate the analgesic and sedative effects of CBD:CBC:THC 5:5:5 mg/kg group, separate comparisons were performed with vehicle and pregabalin as controls, CBD+THC 10:10 mg/kg as positive control for sedation and CBC 10 mg/kg as negative control for sedation. The results of these comparisons were obtained by using all the previously identified components: model effect, learning effect and model orthogonal to learning, sedation orthogonal to model, and finally, the sedation orthogonal to both model and learning. […]

SNL operated SD rats [2] = assay: Tactile allodynia test, electronic von Frey (evF), paw withdrawal threshold in spinal nerve ligation (SNL) rats
Procedure: Spinal Nerve Ligation (SNL) Surgery. The animals were enrolled to SNL surgery in daily cohorts of n=6. The rats first received an intraperitoneal dose of 0.03 mg/kg buprenorphine (Temgesic), minimum of 30 minutes prior to the surgery, to alleviate the operative and postoperative pain unrelated to neuropathy. Prior to spinal nerve ligation (SNL) procedure, the rats were anesthetized with isoflurane in 70% N2O and 30% O2; with a flow rate of 300 ml/min. Anesthesia was inducted in a chamber with 5% isoflurane for 2-3 min, and maintained through a snout mask with 1-2% isoflurane thereafter. A homeothermic blanket system was used for the rectal temperature to be monitored and maintained at 37.0° C.±1.5° C. during the operation.
A dorsal incision extending from L3 to S2 was performed to the medial dorsal area of the rat using aseptic technique. The L6/S1 posterior interarticular process was exposed using a combination of blunt and sharp dissection. The L6 transverse process in the spinal column was visualized and partially removed without manipulating the nerves, followed by exposing the L4 and L5 spinal nerves distal to their emergence from the intervertebral foramina.
The L5 nerve was ligated tightly with 6-0 silk suture. The L6 nerve was then located caudal and medial to the sacroiliac junction and tightly ligated with 6-0 silk suture, similarly to L5. Both ligatures were performed as double knots.
Tactile Allodynia Test (evF) and Pre-Handling and Baseline evF. In this study, mechanical sensitivity to touch stimuli was defined at four timepoints by using electronic von Frey (evF) device along with the attached analysis software (Somedic®, Sweden).
To perform the evF test, the rats were placed in individual von Frey test chambers standing on an elevated steel mesh. The rats were then allowed to adapt in the chambers, and the test per se was emerged after they have settled down followed by investigating the chamber and grooming (approximately 15 min). Test […] an animals were grooming, urinating, defecating or sleeping. Further description of test procedure is provided hereinbelow.
Conducting evF Test. Mechanical allodynia were assessed by evF test prior to SNL surgery (baseline), to define the individual sensitivity levels of the study animals. Next, the evF was performed on D 7 post-SNL, to assess the hypersensitivity evoked by the SNL surgery, and to provide pre-dosing sensitivity values for comparing. On D 8, the animals were subjected to the test at 2 h post-dosing (PD), at 4 h PD and at 8 h PD. Subsequently, the test was performed at 24 h PD, i.e. on D 9. On D 9, Group 2 received Pregabalin (i.p) at 2 h prior to testing.
The evF apparatus was used according to the manufacturer's instructions. Briefly, upon each measurement, the force is applied to mid-plantar surface of the hind paw in a linearly increasing rate.
The used evF probe diameter was 1 mm, and the chosen ascent rate of the force 10 g/s. The linearity of force application was monitored in real time. The applied force (in grams) causing paw withdrawal was recorded by the apparatus as the result for the trial.
Altogether, 5 repeated measurements were applied to each hind paw at each time-point leaving a minimum of 3-min interval between the repeats. Medians of the 5 measurement repeats were determined from each paw at any given time point. Both ipsi- and contralateral paws were also tested on each test day.

SNL operated SD rats [3] = assay: Fine motor kinematic gait analysis (MotoRater) in SNL rats; settings: within group, D7 to 24 h PD
Procedure: Fine Motor Kinematic Gait Analysis. The rats were subjected to gait analysis at the baseline and on study days 8, 9, 11, 14 and 17, at a minimum of 30 min after the evF test. The assay were carried out by MotoRater (TSE Systems, Homburg, Germany), with the walking mode. Prior to commencing the test, the essential body points (e.g. joints, limbs, nose, tail) were marked for tracking. The information of the gait performance was captured using a high speed camera (300 frames/second) from below and both sides. Next, the captured videos were converted to SimiMotion™ software. The raw data were obtained by tracking the marked points of the body from the videos recorded from all 3 dimensions. […]
Different gait patterns and movements were analyzed using a custom-made automated analysis system. […]
All Motorater data were analyzed for the distinct parameters, as well as for all combined parameters, using principal component analysis (PCA). […]
Comprehensive kinematic analysis was performed by high sensitivity MotoRater that allows detection of any subtle to severe gait changes in SNL model. […] The fine motor capabilities and the gait of the animals were evaluated at the baseline and four times after the SNL surgery, 2 h, 5 h, 9 h and 24 hours post-dosing using the kinematic movement analysis of altogether 97 separate parameters that were recorded.

CC(C)C[C@H](CN)CC(=O)O [Pregabalin]
analgesic or sedative effect in the kinematic data (SNL operated SD rats [1]): no analgesic or sedative effect
Mean Diff, evF AUC (SNL operated SD rats [2]; 5 mg/kg subset, labelled group vs. CBD + THC + CBC 5:5:1 mg/kg): 13.8 and 14
Mean Diff, evF AUC (SNL operated SD rats [2]; 5 mg/kg subset, labelled group vs. Vehicle): 29.8 and 30
Mean (Mean 1/Mean 2), electronic von Frey Area Under the Curve (AUC) (SNL operated SD rats [2]; Table 2B, 5 mg/kg subset, AUC of % of baseline PWT, pre-dosing to 24 h post-dosing, dose as in label, cannabinoids p.o. D8, Pregabalin 50 mg/kg i.p.): 271
Mean (Mean 1/Mean 2), electronic von Frey AUC (SNL operated SD rats [2]; Table 3, 10 mg/kg subset, AUC of % of baseline PWT, pre-dosing to 24 h post-dosing, dose as in label, cannabinoids p.o. D8, Pregabalin 50 mg/kg i.p.): 270.8
Mean Diff, evF AUC (SNL operated SD rats [2]; Table 3, labelled group vs. CBD + THC 10 mg/kg): −63.2
Mean Diff, evF AUC (SNL operated SD rats [2]; Table 3, labelled group vs. CBD + THC 10 mg/kg + CBC 2 mg/kg): −49.2
Mean Diff, evF AUC (SNL operated SD rats [2]; Table 3, labelled group vs. Vehicle): 29.8
Mean Diff, evF AUC (SNL operated SD rats [2]; vs. Vehicle, separate 'Tukey's multiple comparison test' block at foot of Tables 2A/2B): 29.8 and 30
overall gait score pattern over time, in words (SNL operated SD rats [3]): increasing score until 9 h PD timepoint
